Results reported in a melting point compilation (Tetko et al.; mined from patent text by program, amines drawn as free bases though some values may be those of a salt).

SMILES | melting point
CC1(C(O)C(Cc2ccc(Cl)cc2)n2cncn2)COCOC1 (stereo unspecified) | 152 to 154 °C
CC(=O)Nc1ccc(C(F)(F)F)cc1C | 160 °C
CC1CC(=O)NN=C1c1ccc(N2CCNCC2)c(N)c1 (stereo unspecified) | 244 to 245 °C
N#Cc1c(-c2ccc(Cl)cc2)[nH]c(SC(F)(F)F)c1Br | 241 to 243 °C
O=c1cc(-c2ccc(OCc3ccccc3)c(OCc3ccccc3)c2)oc2cc(OCCBr)ccc12 | 167 to 168 °C
Cc1c(Cl)cccc1Nc1ncccc1[N+](=O)[O-] | 134 to 135 °C
CC(C)N(C(=O)c1ccc(N)cc1)C(C)C | 170 °C
CS(=O)(=O)N1CCC(Nc2nc(Nc3ccc(F)c(C(=O)N4CCOCC4)c3)nc(OCC(F)(F)F)n2)CC1 | 217 to 219 °C
Nc1nc(-c2ccc(CCN3CCN(c4cccc(C(F)(F)F)c4)CC3)cc2)cs1 | 274 to 277 °C
CSc1nc(C(F)(F)F)c(Br)c(=O)[nH]1 | 215 to 216 °C
CN1CCCC1=NC(=O)Nc1c(Cl)cccc1Cl | 134 to 136 °C
CCOC(=O)C(C#N)C1NC(=O)c2sccc2-n2cccc21 (stereo unspecified) | 195 °C
Nc1c(Cl)cc(C(O)CNCCCCCCSCCc2ccccn2)cc1Cl (stereo unspecified) | 83 to 84 °C
O=C(c1ccc(F)cc1)c1ccc(SCc2ccccc2)cc1 | 96 °C
Cn1cc2c(n1)c(N)nc1ccccc12 | 218 to 219 °C
Clc1cccc(C(c2ccnc3ccccc23)n2cnnc2)c1 (stereo unspecified) | 203 °C
CC1(C)Cc2c(Cl)c(N)cc(C(=O)O)c2O1 | 185 to 187 °C
Cc1cc(C)c(NCCC(N)=S)cc1C | 110 to 111 °C
CCCC(=Cc1ccsc1)[N+](=O)[O-] | 52 to 54.5 °C
Cc1oc(-c2ccccc2)nc1COc1ccc(COc2nn(Cc3ccc(OCc4nc(-c5ccccc5)oc4C)cc3)cc2CO)cc1 | 157 to 158 °C
CC(=O)c1c[nH]cc1-c1cccc(Cl)c1Cl | 192 to 194 °C
Nc1[nH]nc(-c2ccc(F)cc2)c1-c1ccncc1 | > 250 °C
CC1(C)OC(=O)[C@@H](CC=O)O1 | 37 to 38 °C
O=C(NC1(C(=O)O)CCOCC1)OCc1ccccc1 | 110 to 115 °C
Oc1ccc(-c2nc3ccccc3nc2-c2ccc(O)cc2)cc1 | 336 to 338 °C
Nc1ccnc(SCc2ccccn2)n1 | 133 to 134 °C

Further lines, results first:

melting point | SMILES
62 to 66 °C | COCCOC(=O)C1=C(C)NC(C)=C(C(=O)OCCN2CCN(C(c3ccccc3)c3ccccc3)CC2)C1c1cccc([N+](=O)[O-])c1 (stereo unspecified)
123 to 125 °C | CC(C)Cc1nc2c(N)nc3ccccc3c2s1
129 to 131 °C | CCc1c(-c2ccc(OCc3ccccc3)cc2)c2cc(C(=O)OC)c3cccc1n32
61 to 62 °C | CC=Cc1cccc(Oc2ccccc2Cl)c1OC
> 245 °C | O=C(Nc1ccc(-n2nc(C(F)(F)F)cc2C(F)(F)F)cc1)c1ccc(O)cc1
188 to 190 °C | CCCc1cccc(N2CC(=O)NC(=O)N2)c1
204 to 205 °C | Cc1c(C)c(N2CCN(c3nc(-c4ccccc4)ns3)CC2)c(C)c2c1OC(C)(C)C2
213 to 214 °C | COc1ccc(Oc2cc3c(cc2Cl)C=C(C(=O)O)C(C(F)(F)F)O3)cc1 (stereo unspecified)
53 to 57 °C | O=C(C=Cc1ccc(F)c(F)c1)OCCc1ccccc1
156 to 157 °C | CCOc1cccc(CC(=O)O)c1OCCCc1cn(-c2ccc(C(F)(F)F)cn2)nc1C1CCCCC1
111 to 112 °C | COc1ccc(C2Sc3cccc4cccc(c34)N(CCN(C)C)C(=O)C2OC(C)=O)cc1 (stereo unspecified)
154 to 156 °C | COc1ccc2c(c1)C=C(/C=C/C=C/C=C/C(=O)O)C(C)(C)O2
> 280 °C | CCn1c(=O)c2c(nc(C=Cc3ccc(C(=O)O)cc3OC)n2C)n(CC)c1=O
104 °C | COc1cc2c3c(c1)c(CCN1CCN(c4cc(C)ccn4)CC1)c(C)n3CCC2
129 to 130 °C | COc1cc(CCCC(=O)O)ccc1OCc1nc(-c2ccco2)oc1C
